Reference: BindingDB's records for doi:10.1016/s0960-894x(01)00096-8 (Seoul National University, 2001)

Key:
[1] = target: Isoleucine--tRNA ligase (Escherichia coli) (UniProt P00956); experiment: Inhibitory concentration against isoleucyl-tRNA synthetase was determined by measuring decrease of the aminoacylation product [3H]- isoleucyl tRNA of Escherichia coli
[2] = target: Methionine--tRNA ligase (Escherichia coli) (UniProt P00959); experiment: Inhibitory concentration against methionyl-tRNA synthetase was determined by measuring decrease of the aminoacylation product [35S]- methionyl tRNA of Escherichia coli
Sequence of Methionine--tRNA ligase (Escherichia coli) (P00959 whole entry, looked up): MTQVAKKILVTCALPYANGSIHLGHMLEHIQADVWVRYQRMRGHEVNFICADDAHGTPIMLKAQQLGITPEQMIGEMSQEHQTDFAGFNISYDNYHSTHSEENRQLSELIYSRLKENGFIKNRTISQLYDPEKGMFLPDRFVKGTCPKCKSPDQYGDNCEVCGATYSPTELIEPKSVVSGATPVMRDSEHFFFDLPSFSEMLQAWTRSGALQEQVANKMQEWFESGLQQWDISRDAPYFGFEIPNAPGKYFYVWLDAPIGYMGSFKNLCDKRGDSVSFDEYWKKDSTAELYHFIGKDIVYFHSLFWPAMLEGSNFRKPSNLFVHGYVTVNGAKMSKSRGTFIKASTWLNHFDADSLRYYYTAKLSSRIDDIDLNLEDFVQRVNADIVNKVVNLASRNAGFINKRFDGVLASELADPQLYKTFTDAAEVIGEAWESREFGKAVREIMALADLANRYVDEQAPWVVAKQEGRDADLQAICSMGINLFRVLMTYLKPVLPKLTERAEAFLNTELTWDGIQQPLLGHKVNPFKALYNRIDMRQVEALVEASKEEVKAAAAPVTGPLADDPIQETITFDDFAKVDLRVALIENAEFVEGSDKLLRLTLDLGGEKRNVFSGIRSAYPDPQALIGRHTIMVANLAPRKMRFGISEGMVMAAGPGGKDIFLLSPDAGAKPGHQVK

[3] = target: Isoleucine--tRNA ligase (Escherichia coli) (UniProt P00956); experiment: Inhibitory concentration against isoleucyl-tRNA synthetase was determined by measuring decrease of the aminoacylation product [3H]- isoleucyl tRNA of Escherichia coli; remark: listed apart in the source
[4] = Inhibitory concentration against methionyl-tRNA synthetase was determined by measuring decrease of the aminoacylation product [35S]- methionyl tRNA of Escherichia coli

Sequence of Isoleucine--tRNA ligase (Escherichia coli) (P00956 whole entry, looked up): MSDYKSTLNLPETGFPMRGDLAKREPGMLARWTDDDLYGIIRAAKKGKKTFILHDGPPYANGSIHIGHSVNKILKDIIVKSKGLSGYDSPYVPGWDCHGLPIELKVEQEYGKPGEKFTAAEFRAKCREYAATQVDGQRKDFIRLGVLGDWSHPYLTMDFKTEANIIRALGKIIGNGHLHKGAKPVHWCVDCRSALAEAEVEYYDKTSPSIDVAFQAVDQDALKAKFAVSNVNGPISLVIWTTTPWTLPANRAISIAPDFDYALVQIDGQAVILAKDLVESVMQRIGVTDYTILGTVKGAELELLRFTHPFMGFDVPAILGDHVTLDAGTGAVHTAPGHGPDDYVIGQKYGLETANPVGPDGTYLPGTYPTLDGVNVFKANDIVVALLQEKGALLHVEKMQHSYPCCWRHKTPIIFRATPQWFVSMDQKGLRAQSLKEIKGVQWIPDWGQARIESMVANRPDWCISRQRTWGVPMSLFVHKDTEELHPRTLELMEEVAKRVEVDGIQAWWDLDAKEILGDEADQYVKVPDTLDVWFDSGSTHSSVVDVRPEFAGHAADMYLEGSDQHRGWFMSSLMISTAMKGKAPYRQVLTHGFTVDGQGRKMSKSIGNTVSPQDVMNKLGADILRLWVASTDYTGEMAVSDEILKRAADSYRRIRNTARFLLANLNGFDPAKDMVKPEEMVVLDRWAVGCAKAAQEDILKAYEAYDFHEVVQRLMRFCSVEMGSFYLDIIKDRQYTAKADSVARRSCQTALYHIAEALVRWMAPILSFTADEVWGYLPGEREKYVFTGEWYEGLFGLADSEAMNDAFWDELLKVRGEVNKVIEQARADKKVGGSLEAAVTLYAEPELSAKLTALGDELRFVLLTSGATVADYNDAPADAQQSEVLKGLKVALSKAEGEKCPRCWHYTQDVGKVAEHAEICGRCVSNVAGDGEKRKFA

Compound	IC50 [1] [µM]	IC50 [2] [µM]	also measured
CCC(C)[C@H](N)C(=O)OCCN(O)C(=O)Cc1ccc(OC)c(O)c1 (stereo partly drawn) [(S)-1-(2-{Hydroxy-[2-(3-hydroxy-4-methoxy-phenyl)-acetyl]-amino}-ethoxycarbonyl)-2-methyl-butyl-ammonium]	21	–	–
COc1cc(CC(=O)N(O)CCOC(=O)[C@@H](N)CCSC)ccc1O [(S)-1-(2-{Hydroxy-[2-(4-hydroxy-3-methoxy-phenyl)-acetyl]-amino}-ethoxycarbonyl)-3-methylsulfanyl-propyl-ammonium]	–	128	–
CCC(C)[C@H](N)C(=O)OCCNC(=O)c1ccc(O)c(OC)c1 (stereo partly drawn) [(S)-1-[2-(4-Hydroxy-3-methoxy-benzoylamino)-ethoxycarbonyl]-2-methyl-butyl-ammonium]	64.4	–	–
CCC(C)[C@H](N)C(=O)OCC1CC(c2ccc(O)c(OC)c2)=NO1 (stereo partly drawn) [(S)-1-[3-(4-Hydroxy-3-methoxy-phenyl)-4,5-dihydro-isoxazol-5-ylmethoxycarbonyl]-2-methyl-butyl-ammonium]	79	–	–
CCC(C)[C@H](N)C(=O)OC[C@H]1COC(c2ccc(O)c(OC)c2)=N1 (stereo partly drawn) [(S)-1-[(R)-2-(4-Hydroxy-3-methoxy-phenyl)-4,5-dihydro-oxazol-4-ylmethoxycarbonyl]-2-methyl-butyl-ammonium]	–	–	IC50 [3]: 50 µM
COc1cc(C2=N[C@@H](COC(=O)[C@@H](N)CCSC)CO2)ccc1O [(S)-1-[(R)-2-(4-Hydroxy-3-methoxy-phenyl)-4,5-dihydro-oxazol-4-ylmethoxycarbonyl]-3-methylsulfanyl-propyl-ammonium]	–	–	IC50 [4]: 39 µM
CCC(C)[C@H](N)C(=O)OCCNC(=O)Cc1ccc(OC)c(O)c1 (stereo partly drawn) [(S)-1-{2-[2-(3-Hydroxy-4-methoxy-phenyl)-acetylamino]-ethoxycarbonyl}-2-methyl-butyl-ammonium]	56.5	–	–
CCC(C)[C@H](N)C(=O)OCCNC(=O)Cc1ccc(O)c(OC)c1 (stereo partly drawn) [(S)-1-{2-[2-(4-Hydroxy-3-methoxy-phenyl)-acetylamino]-ethoxycarbonyl}-2-methyl-butyl-ammonium]	45	–	–
CCC(C)[C@H](N)C(=O)OCCN(O)C(=O)c1ccc(OC)c(O)c1 (stereo partly drawn) [(S)-1-{2-[Hydroxy-(3-hydroxy-4-methoxy-benzoyl)-amino]-ethoxycarbonyl}-2-methyl-butyl-ammonium]	4.5	–	–
COc1ccc(C(=O)N(O)CCOC(=O)[C@@H](N)CCSC)cc1O [(S)-1-{2-[Hydroxy-(3-hydroxy-4-methoxy-benzoyl)-amino]-ethoxycarbonyl}-3-methylsulfanyl-propyl-ammonium]	–	72	–
CCC(C)[C@H](N)C(=O)OCCN(O)C(=O)c1ccc(O)c(OC)c1 (stereo partly drawn) [(S)-1-{2-[Hydroxy-(4-hydroxy-3-methoxy-benzoyl)-amino]-ethoxycarbonyl}-2-methyl-butyl-ammonium]	12.8	–	–
COc1cc(C(=O)N(O)CCOC(=O)[C@@H](N)CCSC)ccc1O [(S)-1-{2-[Hydroxy-(4-hydroxy-3-methoxy-benzoyl)-amino]-ethoxycarbonyl}-3-methylsulfanyl-propyl-ammonium]	–	32.5	–

More lines, main results first:

IC50 [1] [µM]	IC50 [2] [µM]	Compound	also measured
–	87	COc1ccc(CC(=O)N(O)CCOC(=O)[C@@H](N)CCSC)cc1O [(S)-1-(2-{Hydroxy-[2-(3-hydroxy-4-methoxy-phenyl)-acetyl]-amino}-ethoxycarbonyl)-3-methylsulfanyl-propyl-ammonium]	–
228	–	CCC(C)[C@H](N)C(=O)OCCN(O)C(=O)Cc1ccc(O)c(OC)c1 (stereo partly drawn) [(S)-1-(2-{Hydroxy-[2-(4-hydroxy-3-methoxy-phenyl)-acetyl]-amino}-ethoxycarbonyl)-2-methyl-butyl-ammonium]	–
106	–	CCC(C)[C@H](N)C(=O)OCCNC(=O)c1ccc(OC)c(O)c1 (stereo partly drawn) [(S)-1-[2-(3-Hydroxy-4-methoxy-benzoylamino)-ethoxycarbonyl]-2-methyl-butyl-ammonium]	–
–	78	COc1ccc(C(=O)NCCOC(=O)[C@@H](N)CCSC)cc1O [(S)-1-[2-(3-Hydroxy-4-methoxy-benzoylamino)-ethoxycarbonyl]-3-methylsulfanyl-propyl-ammonium]	–
–	60	COc1cc(C(=O)NCCOC(=O)[C@@H](N)CCSC)ccc1O [(S)-1-[2-(4-Hydroxy-3-methoxy-benzoylamino)-ethoxycarbonyl]-3-methylsulfanyl-propyl-ammonium]	–
57.6	–	CCC(C)[C@H](N)C(=O)OCC1CC(c2ccc(OC)c(O)c2)=NO1 (stereo partly drawn) [(S)-1-[3-(3-Hydroxy-4-methoxy-phenyl)-4,5-dihydro-isoxazol-5-ylmethoxycarbonyl]-2-methyl-butyl-ammonium]	–
–	47	COc1ccc(C2=NOC(COC(=O)[C@@H](N)CCSC)C2)cc1O (stereo partly drawn) [(S)-1-[3-(3-Hydroxy-4-methoxy-phenyl)-4,5-dihydro-isoxazol-5-ylmethoxycarbonyl]-3-methylsulfanyl-propyl-ammonium]	–
–	58	COc1cc(C2=NOC(COC(=O)[C@@H](N)CCSC)C2)ccc1O (stereo partly drawn) [(S)-1-[3-(4-Hydroxy-3-methoxy-phenyl)-4,5-dihydro-isoxazol-5-ylmethoxycarbonyl]-3-methylsulfanyl-propyl-ammonium]	–
38.6	–	CCC(C)[C@H](N)C(=O)OC[C@@H]1COC(c2ccc(O)c(OC)c2)=N1 (stereo partly drawn) [(S)-1-[(S)-2-(4-Hydroxy-3-methoxy-phenyl)-4,5-dihydro-oxazol-4-ylmethoxycarbonyl]-2-methyl-butyl-ammonium]	–
–	33.5	COc1cc(C2=N[C@H](COC(=O)[C@@H](N)CCSC)CO2)ccc1O [(S)-1-[(S)-2-(4-Hydroxy-3-methoxy-phenyl)-4,5-dihydro-oxazol-4-ylmethoxycarbonyl]-3-methylsulfanyl-propyl-ammonium]	–
–	164	COc1ccc(CC(=O)NCCOC(=O)[C@@H](N)CCSC)cc1O [(S)-1-{2-[2-(3-Hydroxy-4-methoxy-phenyl)-acetylamino]-ethoxycarbonyl}-3-methylsulfanyl-propyl-ammonium]	–
–	94	COc1cc(CC(=O)NCCOC(=O)[C@@H](N)CCSC)ccc1O [(S)-1-{2-[2-(4-Hydroxy-3-methoxy-phenyl)-acetylamino]-ethoxycarbonyl}-3-methylsulfanyl-propyl-ammonium]	–
